Measurements published in patent publication US11685717B2, “Polypeptide integrin antagonists” (The General Hospital Corporation, priority 2018, dated 2023).
“Also recorded” adds a separate entry of the source. Positions of bridges follow the written chain, without caps; N, C: chain ends. Non-standard residues stand in square brackets, D forms with d. Residues, ends and D or L forms follow the SMILES beside them. hArg = N=C(N)NCCCC[C@H](N)C(=O)O; Mpa = O=C(O)CCS

Tests used:
[1] = Tail bleeding in vWF RH/RH NSG mice infused with human platelets; details: mouse, in vivo
Method: Pentobarbital-anesthetized vWF^RH RHNSG mice were infused retroorbitally with 8×10^8 washed human platelets in a final volume of 200 μL (so that ˜40% of the circulating platelets were human). After 5 minutes PBS, 3 μM eptifibatide or Hr10 were administered IV. After another 5 minutes, mouse tail injury was produced by amputating an 8-mm terminal tail segment using a razor blade, which was then placed in a collection tube containing sterile water at 37° C. for 10 minutes. The hemoglobin level in the water was measured by a spectrophotometer, as described (see e.g., Greene et al, J. Thromb. Haemost. 8, 2820-2822 (2010)) with the following modifications. Briefly, the hemolyzed whole blood/water mixture was centrifuged at 21,000×g for 5 minutes. Aliquots (20 μL) of clarified, stroma-free supernatant were diluted 10-fold in a Corning 96-well micro-plate and light absorbance measured at 575 nm (Spectramax-190 plate reader, Molecular Devices, San Jose, Calif.). Blood loss during the 10-minute window was measured based on a previously obtained standard curve.

human platelets [2] = assay: Surface expression of CD62P and CD63 on human platelets (flow cytometry); assay type: cell-based; details: 1.5 μM; ADP 20 μM; FIG. 11F
Method: αVβ3-K562 cells or transiently transfected HEK293T (0.5×10^6 in 100 μL WB) were incubated in the absence or presence of unlabeled Hr10 or eptifibatide, each at 1.5 μM, for 20 min at RT. Alexa647-labeled AP5 Fab or unlabeled anti-LIBS-1 (each to 10 μg/mL) were added, and cells incubated for an additional 30 min before washing. Alexa647-labeled AP3 was used for normalization of integrin expression. APC-labeled goat anti-mouse Fc-specific antibody was added to anti-LIBS-1-bound cells for an additional 30 min at 4° C., cells washed and processed for flow cytometry. Binding of anti-CD62 and anti-CD63 mAbs to platelets was performed by incubating (20 min, RT) 100 μL of ligand-pretreated 3.2% sodium citrate whole blood with either Alexa488-labeled mAb (at 10 μg/mL) in the presence of 10 μg/mL Alexa647-labeled anti-CD42b. Cells were fixed in 2% paraformaldehyde and CD62 and CD63 expression was analyzed by flow cytometry in the CD42b positive population.

human platelets [3] = assay: Cremaster laser injury thrombosis in vWF RH/RH NSG mice infused with human platelets; assay type: in vivo; details: eptifibatide 5 μg/mouse, Hr10 60 μg/mouse (equimolar), infused 5 min before injury; FIG. 13A
Method: Human blood was collected in 0.129 M sodium citrate (10:1 vol/vol). Blood was obtained from healthy donors after informed consent. Platelet-rich plasma (PRP) was separated after centrifugation (200 g, 10 minutes) at room temperature (RT). The platelets were then isolated from PRP, and prostaglandin E1 (Sigma-Aldrich) added to a final concentration of 1 μM. Platelets were then pelleted by centrifugation (800 g, 10 minutes) at RT. The pellet was washed in calcium-free Tyrode's buffer (134 mM NaCl, 3 mM KCl, 0.3 mM NaH2PO4, 2 mM MgCl2, 5 mM HEPES, 5 mM glucose, 0.1% NaHCO3, and 1 mM EGTA, pH 6.5), and re-suspended in CATCH buffer (PBS and 1.5% bovine serum albumin, 1 mM adenosine, 2 mM theophylline, 0.38% sodium citrate, all from Sigma-Aldrich). Platelet counts were determined using a HemaVet counter (Drew Scientific). Intravital microscopy was performed as previously described (see e.g., Celi et al, J. Thromb. Haemost. 1, 60-68 (2003); and Neyman et al, Blood, 112, 1101-1108 (2008)). vWF^RH RHNSG male mice were studied after being anesthetized using sodium pentobarbital (80 mg/kg) injected intraperitoneally. Mice were maintained under anesthesia with the same anesthetic delivered via a catheterized jugular vein at 5 mg/mL throughout the experiment. […]

αIIbβ3 = target: T1, αIIbβ3 (Homo sapiens, UniProt P05106+P08514); assay: Binding of conformation-sensitive mAbs AP5 / LIBS-1 to human platelets; assay type: cell-based
T1 construct: expressed in transfected cells; host or cells: K562
T1 sequence (P08514 32-887 limits assumed): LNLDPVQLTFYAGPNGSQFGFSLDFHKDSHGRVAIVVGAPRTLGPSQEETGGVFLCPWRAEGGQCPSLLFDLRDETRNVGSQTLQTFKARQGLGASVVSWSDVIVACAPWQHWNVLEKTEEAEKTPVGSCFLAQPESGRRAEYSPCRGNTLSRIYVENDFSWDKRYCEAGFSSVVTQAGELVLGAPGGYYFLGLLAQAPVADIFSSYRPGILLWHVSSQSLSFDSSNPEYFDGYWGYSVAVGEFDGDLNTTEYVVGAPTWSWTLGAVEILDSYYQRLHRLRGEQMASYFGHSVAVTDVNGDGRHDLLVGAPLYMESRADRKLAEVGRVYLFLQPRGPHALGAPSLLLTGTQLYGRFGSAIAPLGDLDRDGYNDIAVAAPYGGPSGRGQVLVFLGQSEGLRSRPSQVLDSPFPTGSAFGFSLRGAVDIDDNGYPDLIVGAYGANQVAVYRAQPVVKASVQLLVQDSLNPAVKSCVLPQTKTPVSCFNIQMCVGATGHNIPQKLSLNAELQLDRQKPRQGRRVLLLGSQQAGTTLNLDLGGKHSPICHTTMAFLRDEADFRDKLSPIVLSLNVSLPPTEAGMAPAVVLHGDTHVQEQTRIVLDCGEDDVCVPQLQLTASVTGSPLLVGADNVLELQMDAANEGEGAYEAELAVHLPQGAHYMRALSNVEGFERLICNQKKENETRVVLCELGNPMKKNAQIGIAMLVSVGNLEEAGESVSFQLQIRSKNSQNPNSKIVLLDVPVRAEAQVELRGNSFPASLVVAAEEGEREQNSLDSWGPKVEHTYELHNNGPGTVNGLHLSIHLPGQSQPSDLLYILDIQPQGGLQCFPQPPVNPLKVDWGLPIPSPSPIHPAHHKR
T1 sequence (P08514 891-1039 partner limits assumed): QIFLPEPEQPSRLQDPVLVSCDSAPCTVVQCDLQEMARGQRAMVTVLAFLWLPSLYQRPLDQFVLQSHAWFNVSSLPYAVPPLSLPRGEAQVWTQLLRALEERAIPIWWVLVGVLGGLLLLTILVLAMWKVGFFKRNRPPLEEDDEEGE
T1 sequence (P05106 27-788): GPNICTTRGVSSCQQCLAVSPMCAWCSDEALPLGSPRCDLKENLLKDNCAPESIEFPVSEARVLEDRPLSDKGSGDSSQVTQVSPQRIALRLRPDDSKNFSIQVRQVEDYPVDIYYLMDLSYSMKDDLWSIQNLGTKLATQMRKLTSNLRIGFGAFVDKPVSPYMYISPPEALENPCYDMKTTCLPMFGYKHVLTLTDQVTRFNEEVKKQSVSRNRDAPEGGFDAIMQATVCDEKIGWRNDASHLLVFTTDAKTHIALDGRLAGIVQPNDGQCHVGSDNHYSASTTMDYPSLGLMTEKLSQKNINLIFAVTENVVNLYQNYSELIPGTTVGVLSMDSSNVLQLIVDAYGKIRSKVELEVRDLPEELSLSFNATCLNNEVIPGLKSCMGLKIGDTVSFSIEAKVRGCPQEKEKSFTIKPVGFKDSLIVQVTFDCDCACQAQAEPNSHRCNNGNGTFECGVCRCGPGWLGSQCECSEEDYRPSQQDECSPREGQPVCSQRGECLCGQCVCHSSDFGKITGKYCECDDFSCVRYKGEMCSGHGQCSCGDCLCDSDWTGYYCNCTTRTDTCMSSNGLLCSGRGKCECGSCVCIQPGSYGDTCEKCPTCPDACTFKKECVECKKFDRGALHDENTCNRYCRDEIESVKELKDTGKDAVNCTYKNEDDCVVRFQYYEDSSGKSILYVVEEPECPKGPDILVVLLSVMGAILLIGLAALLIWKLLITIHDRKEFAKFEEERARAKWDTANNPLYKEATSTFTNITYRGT

human platelets [4] = assay: Thrombin-induced clot retraction in human platelet-rich plasma; assay type: cell-based
Method: 750 μL of Tyrode's buffer supplemented with inhibitor was mixed in a glass culture tube with 200 μL of PRP and 5 μL red blood cells. Clotting was initiated by addition of 50 μL thrombin at 10 units/mL in saline and a sealed Pasteur pipette secured in the tube center. Digital photographs of the experiment were taken at 15-minute intervals over 2 hours. Images were analyzed with ImageJ software to determine the area occupied by the clot and plasma. Plots of the relative areas and linear regressions were performed with SigmaPlot (Systat Software, San Jose, Calif.).
No ligands were added to the control tube. Photographs were taken immediately after thrombin addition (FIG. 5A) and at the end of the reaction (FIG. 5B). Clot retraction around the central glass rod placed in each glass test tube before thrombin addition is shown. 5 μL of red blood cells were added per 1 mL reaction to enhance the color contrast for photography.
Clot retraction normally helps secure hemostasis in vivo as evidenced by increased bleeding in mice with impaired clot retraction (see e.g., Leon et al, Blood 110, 3183-3191, doi:10.1182/blood-2007-03-080184 (2007)), or in recipients of any of the three anti-αIIbβ3 drugs (see e.g., Tutwiler et al, Biophys. J. 112, 714-723 (2017); Osdoit et al, J. Biol. Chem. 276, 6703-6710 (2001); Haling et al, Blood 117, 1719-1722 (2011)). The effects of Hr10 and eptifibatide on thrombin-induced clot retraction in fresh human platelet-rich plasma (PRP) (see e.g., Tucker et al, Methods Mol. Biol. 788, 101-107 (2012)) were compared. The kinetics of clot retraction were determined from quantification of serial images of the reaction acquired every 15 minutes for the 2-hour duration of the assay. […] Thrombolysis, 15, 71-80 (2003).

SMILES | Bleeding volume [1] | Bleeding in humanized mice ([1]; iv) | ADP-induced secretion from lysosomes (CD63 expression) (human platelets [2]) | ADP-induced secretion from platelet α-granules (CD62P expression) (human platelets [2]) | Nascent occlusive thrombus formation / human platelet accumulation at laser-induced arteriolar injury (human platelets [3]) | Conformational changes in αIIbβ3 reported by binding of mAbs AP5 and LIBS-1 (αIIbβ3; 1.5 μM, absence or presence of 5 μM ADP, FIG. 8D) | Kinetics of thrombin-induced clot retraction vs. buffer (human platelets [4]; fresh human PRP, 2 hours, FIGS. 12A-12B, three experiments) | Induction of AP5 epitope expression on human platelets (αIIbβ3; tirofiban 150 nM, M-tirofiban 1.5 μM, ADP 5 μM, FIG. 6D) | Kinetics of thrombin-induced clot retraction (human platelets [4]; FIG. 6E, three experiments, vs buffer control) | Clot retraction induced by α-thrombin (photographs) (human platelets [4]; tirofiban 1.5 μM, m-tirofiban 15 μM, α-thrombin 0.5 unit/mL, FIG. 5)
N=C(N)NCCCC[C@@H]1NC(=O)CCSSC[C@@H](C(N)=O)NC(=O)[C@@H]2CCCN2C(=O)[C@H](Cc2c[nH]c3ccccc23)NC(=O)[C@H](CC(=O)O)NC(=O)CNC1=O [eptifibatide] ([Mpa][hArg]GDWPC-NH2; disulfide 1-7) | ~10 % of blood volume of a normal mouse | caused excessive bleeding | did not significantly alter; also recorded: No differences | did not significantly alter; also recorded: No differences | completely preventing nascent occlusive thrombus formation | induced conformational changes in αIIbβ3 | significantly blocked clot retraction; also recorded: clot retraction was significantly reduced |  |  | 
CCCCS(=O)(=O)N[C@@H](Cc1ccc(OCCCCC2CCNCC2)cc1)C(=O)O [tirofiban] |  |  |  |  |  |  |  | induced expression of the AP5 epitope | effectively blocked thrombin-induced clot retraction | completely blocked clot retraction
